Some results are limits rather than exact numbers.

With `CN(C)C1(Cc2ccccc2)CCC(c2[nH]c3ccccc3c2Cc2ccccc2)CC1` (configuration not stated), the melting point (commonly the temperature of the solid-liquid transition) was in the range of 140 to 143 °C.
`N=C1NCCN1Cc1ccccc1` returned a melting point of 165 to 167 °C.
Under `CCCc1c(OCCCOc2ccc([N+](=O)[O-])cc2)ccc(C(C)=O)c1O` stands 98 °C; under `CCOC(=O)C1C(=O)C=C(c2ccc(OCC(=O)O)c(Cl)c2Cl)CC1c1ccccc1` (configuration not stated), 91 °C.
The compound `O=C(Nc1ccccc1)O[C@@H]1CN=C(c2ccc(OC(F)(F)F)cc2)O[C@H]1c1ccccc1` (racemic) registered a melting point of 128 °C.
The value for `O=C(CCCN1CCC2(CC1)OC(c1ccccc1)c1ccccc12)c1ccc(F)cc1` (configuration not stated) was 137 to 138 °C; that for `COC(=S)c1cnccc1Cc1ccccc1` was 98 to 99 °C; that for `O=C(CN(C(=O)c1cccc(C(F)(F)F)c1)c1ccccc1)Nc1ccc(Cl)c(Cl)c1` was 130 to 132 °C.
The value for `CC1(c2ccccc2)SC(=NO)N(Nc2ccccc2)C1=O` (configuration not stated) was 62 to 63 °C; that for `O=[N+]([O-])c1ccc(OCc2nnco2)cc1` was 125 to 126 °C.
For `COc1cc(CCCC2OC(=O)NC2=O)ccc1OCc1nc(-c2ccc3ccccc3c2)oc1C` (configuration not stated), the melting point fell in the range of 173 to 174 °C.
Regarding `Cc1cc(O)ccc1-c1cc2ccccc2[nH]1`, the melting point is 106 °C.
The compound `CCCCCCCCCCC[C@@H](O)CC(=O)O` showed a melting point of 70.6 to 71.4 °C.
The compound `Nc1c2c(nc3cc(C(F)(F)F)ccc13)CCSC2` gave a melting point of 253 to 259 °C.
With `CCN(CC)CC(=O)c1cc(C(=O)c2ccc3ccccc3c2)cn1C`, the melting point was in the range of 130 to 132 °C.
Under `O=C(c1ccco1)n1sc2ccccc2c1=O` stands 157 to 161 °C.
The compound `Nc1nc(NC(CO)CO)c2ncn(C3C=CC(CO)C3)c2n1` (configuration not stated) yielded a melting point of 160 to 162 °C.
In turn, `OCC1=C(c2cccc3sccc23)N2CCN=C2S1` yielded a melting point of 145 to 149 °C.
Under `CCCc1nc2c(N)nc(C)c(C)c2n1CCCC(C)=NOC` stands 144 to 146 °C.
Consider `O=C(c1cc(=O)c2cc(O)ccc2[nH]1)N1CCC(Oc2ccccc2)CC1`, for which the melting point was 270 °C.
Under `Cc1cc(O)c(C(=O)CCC(F)(F)F)c(=O)o1` stands 104 °C.
The value for `CC(=O)Oc1ccc2c(c1)OC(c1ccccc1)(c1ccccc1)O2` was 81.5 to 82.5 °C.
The compound `O=C(O)Cc1c(Cl)nc(-c2cc([N+](=O)[O-])c(Cl)c([N+](=O)[O-])c2)n1Cc1ccccc1` displayed a melting point of 100 to 105 °C.
Under `CC(=NOCCOc1ccc(CC2SC(=O)NC2=O)cc1)c1ccc(-c2ccccc2)cc1` (configuration not stated) stands 164 to 166 °C; under `CCc1cc2c(s1)C(C(=O)O)CC2=O` (configuration not stated), 128 to 132 °C.
`CC(C)N(O)C(=O)c1c([Si](C)(C)C)sc2ccccc12`: the melting point lay in the range of 115 to 118 °C.
Take `Cc1ncc(-c2nc3cc4c(cc3[nH]2)NC(=O)C4(C)C)cn1`: the melting point is over 350 °C.
In turn, `CC1=C(C(=O)OC(C)C)C(c2cccc([N+](=O)[O-])c2)N(C(N)=O)C(=O)N1` (configuration not stated) returned a melting point of 160 to 161 °C.
Compound `Cc1cc(-c2cc(COS(C)(=O)=O)c(=O)n(CC=Cc3ccc(Cl)cc3)n2)ccc1F` registered a melting point of 118 to 120 °C.
In the case of `CC1Cc2cc(C3C(=O)Oc4c3cc(C(C)(C)C)cc4C(C)(C)C)ccc2O1` (configuration not stated), the melting point lay within 136 to 152 °C.
In the case of `O=Cc1ccc(-c2cn(S(=O)(=O)c3ccccc3)c3ccccc23)o1`, the melting point was 140 °C.
Under `CN1CCc2nc3cc(Cl)ccc3c(NNc3ccccc3)c2C1` stands 175 to 178 °C; under `Cn1c2c(c(=O)n(-c3ccc(Cl)c(C(=O)OC(C)(C)C)c3)c1=O)CCC2`, 189 to 191 °C.
The value for `CCc1[nH]n(C2CCCC2)c2nc(-c3cccc(OCCN4CCCCC4)c3)nc(=O)c1-2` was 180 °C; that for `CCOC(=O)C(=Cc1ccc(N(C)C)cc1[N+](=O)[O-])C(=O)OCC` was 101 to 102 °C; that for `O=C1NCC=NN1c1cc(Cl)c(Cc2ccc(Cl)cc2)c(Cl)c1` was 199 to 200 °C.
As for `CN(CC(=O)O)c1ccc(C#N)cc1`, the melting point was determined as 64.5 °C.
The compound `O=C(NCCc1ccccn1)c1cnc2cc3c(cc2c1Cl)OCO3` registered a melting point of 145 to 146 °C.
`OCc1ccc(-c2ccccc2)cc1Cl` displayed a melting point of 69 to 70 °C.
As for `O=C(C=Cc1ccc(OCc2ccccc2)c([N+](=O)[O-])c1)Nc1ccc(Cl)cc1Cl`, the melting point was 152 to 153 °C.
In the case of `CCc1ccc2c(c1)C=Cc1cc(O)ccc1C2c1cn(-c2ccnc(NCC(=O)Nc3nc(CC(=O)O)cs3)n2)c(=O)[nH]c1=O` (configuration not stated), the melting point amounted to 225 °C.
Compound `CCCCN(CCCC)c1ccc(C=Cc2ccc(C=CC3=C(C#N)C(=C(C#N)C#N)OC3(c3ccccc3)C(F)(F)F)s2)c(OCc2ccccc2)c1` (configuration not stated) gave a melting point of 196 to 197 °C.
The compound `COC(=O)C1CSC(c2cc3ccccc3n2C)=N1` (configuration not stated) registered a melting point of 78 to 80 °C.
Under `CN1C(C(=O)OC2CCCCC2)=C(O)c2ccccc2S1(=O)=O` stands 112 °C; under `c1nc(Nc2ccc(N3CCOCC3)cc2)cc(NC2CCCCC2)n1`, 239 to 240 °C; under `CCn1c(=O)c2c(nc(/C=C/c3cccc(OC(C)=O)c3OC(C)=O)n2C)n(CC)c1=O`, 228 to 230 °C.
`CCc1cncnc1O`: the melting point was 95 to 97 °C.
`COC(=O)c1cc2cc(OC)c(OC)cc2c(-c2ccnc(N3C(=O)CCc4ccccc43)c2)c1C(=O)OC` yielded a melting point of 229 to 233 °C.
With `CCOC(=O)C1=C(N)C(OCC)=NS1(=O)=O`, the melting point lay within 163 to 165 °C.
As to `CC(=O)NCc1ccc(CN2CCN(c3ccccn3)CC2)cc1`, the melting point fell in the range of 100 to 101 °C.
The value for `C=C(C)C(=O)NCCCC(=O)Nc1cc(Cl)c(C)c(Cl)c1O` was 119 to 121 °C; that for `C[C@@H]1CCCN1CCCOc1ccc2c(c1)CCc1cc(=O)[nH]nc1-2` was 289 to 292 °C.
With `C#Cc1cc(=O)n2nc(S(=O)(=O)Cc3ccccc3)sc2n1`, the melting point lay within 101 to 106 °C.
Regarding `CC1CCc2ncc([N+](=O)[O-])cc2C1` (configuration not stated), the melting point fell in the range of 50 to 52 °C.
Under `O=C(O)c1ccc(CCCC2SCC(=O)N2C/C=C\C2(O)CCCCC2)cc1` (configuration not stated) stands 118 to 120 °C; under `COC(=O)CCC(=O)c1ccc(-c2ccc(Br)cc2F)cc1`, 94 to 95 °C; under `CC(C)[C@@H]1CC[C@@H](C)C[C@H]1OCC(=O)N(C)CCO`, 65 to 66 °C.
In turn, `Cc1oc(-c2ccco2)nc1COc1ccc(COc2nn(-c3ccccc3)cc2C#N)cc1` gave a melting point of 158 to 159 °C.
On to `CCC1CN(Cc2ccccc2)C(=O)C(=C2SC=CS2)C1=O` (configuration not stated), for which the melting point lay within 140 to 141 °C.
`CCOC(=O)C=C(c1ccc(-c2ccccc2)cc1)C1(n2cncn2)CC1` registered a melting point of 98 to 100 °C.
In turn, `CCC(NC(=O)C(F)F)c1ccc(Cl)c2nc3n(c12)CCCN3c1ccc(Cl)cc1Cl` (configuration not stated) gave a melting point of 248 to 250 °C.
Take `CC(C)(CCCc1cccnc1)NC(=O)C=CC=C(c1cccc(F)c1)c1cccc(F)c1`: the melting point was in the range of 135 to 136 °C.

For the origin of these results see a melting point compilation (Tetko et al.; mined from patent text by program, amines drawn as free bases though some values may be those of a salt).
